Test results from PMC5267425, “Identification of small molecule modulators of HIV-1 Tat and Rev protein accumulation” (Retrovirology, 2017).
pIC50: −log10 of the molar value.

What was measured:
Type in all cases: cell-based
[1] = Trypan blue exclusion, HeLa; conditions: human, HeLa rtTA HIV∆Mls cells
Procedure: Effects of compound treatment on cellular metabolism was assessed by an XTT-based in vitro toxicology assay kit (Sigma-Aldrich) or Trypan blue exclusion (Life Technologies) as proxy for degree of cytotoxicity and expressed relative to DMSO control treatment. For measurement of cell viability using XTT, culture media was removed after 24, 72, and 96 h of compound treatment, replaced with 20% XTT solution and incubated at 37 °C in a 5% CO2 humidified incubator for 2–6 h, and relative cell viability was measured in compound treated cells relative to DMSO-treated cells. Cell viability measurements in CEM-GXR cells are described above.

[2] = tested on: HIV-1 MS RNA isoforms; assay: RT-PCR of splice site usage within HIV-1 MS RNA; conditions: for decrease in levels of Rev1/2 and Nef RNAs relative to DMSO / increase of Tat1 and Tat2 RNAs relative to DMSO: 833 2 µM, 892 15 µM
Procedure: The effect of compound treatment on splice site selection within the HIV-1 MS RNA class was analyzed by radioactive RT-PCR as described previously. Radioactive reaction products were resolved on 6% denaturing polyacrylamide gels (8 M Urea, 1xTBE) and detection using a Typhoon 9400 PhosphorImager (Amersham). Gel densitometry was performed using ImageJ software (NIH) to calculate mRNA levels of HIV-1 MS mRNA isoforms, measured as the density of an individual isoform divided by the total density of all visible viral RNA species in a sample.

[3] = tested on: HIV-1 US RNA; assay: FISH of HIV-1 US RNA and GagGFP in HeLa rtTA HIV GagGFP C7 cells; conditions: 791 30 µM, 833 2 µM, 892 15 µM
Procedure: Changes in HIV-1 US RNA subcellular distribution in response to compound treatment was analyzed by fluorescent in situ hybridization in HeLa HIVrtTA GagGFP cells, as described by Wong et al.. Following washing to remove unbound probe, nuclei were stained with DAPI and images were acquired using a Leica DMR microscope at 630× magnification.

[4] = tested on: HIV-1 BaL; assay: HIV-1 BaL replication in PBMCs, p24 antigen ELISA; conditions: for pIC50: Human immunodeficiency virus 1, BAL, PBMC
Procedure: To examine the effect of compounds on viral replication, studies were carried out in peripheral blood mononuclear cells (PBMCs). PBMCs were isolated from healthy (HIV-uninfected) volunteer blood donors as described by Dobson-Belaire et al.. Informed consent was obtained from participants in accordance with the guidelines for conduct of clinical research at the University of Toronto and St. Michael’s Hospital, Toronto, Ontario, Canada. Stored PBMCs were thawed, washed with RPMI 1640 complete medium and cultured in RPMI 1640 complete medium containing 2 μg/mL of PHA-L (Sigma-Aldrich) and 20 U/mL of IL-2 (BD Pharmingen) for 72 h. Subsequently, cells were counted and a portion of the cells was separated to another tube for uninfected control treatments. The remaining PBMCs were resuspended in media containing HIV-1 BaL at a multiplicity of infection (MOI) of approximately 0.01 and infected by spinoculation, following which cells were washed twice with room temperature RPMI 1640 complete medium and resuspended to a concentration of 5 × 10^5 cells/mL in complete RPMI 1640 containing 20 U/mL of IL-2. Compounds were added to infected PBMCs or uninfected control PBMCs. Azidothymidine (AZT, Sigma-Aldrich) was used as control treatment at a final concentration of 3.74 μM. On day 4 post infection, culture medium was replenished with the compounds and IL-2 in fresh complete RPMI 1640. On days 2, 4, 6 and 8 post infection, culture supernatant was harvested, virus lysed by adjusting to 1% TritonX-100 and stored at −20 °C for p24 antigen ELISA. A fraction of the culture was harvested to assess percent cell viability by trypan blue exclusion using Glasstic slides (Kova). Relative percent cell viability in compound treated samples versus DMSO-control treated samples was calculated as follows: (total viable cells/total cells)compound/(total viable cells/total cells)DMSO.
ELISA for p24 Gag antigen was performed on cell supernatants using kits purchased from Frederick National Laboratory for Cancer Research (Leidos) or XpressBio extended range kit and performed according to manufacturer’s instructions. Protein concentration in cell lysates was quantified by Bradford assay and equal amounts of protein run on 7, 10, 12, or 14% SDS-PAGE, depending on the protein of interest. Following transfer to PVDF (BioRad or Perkin-Elmer), blots were blocked in either 5% Milk-PBS-T (5% Milk, 0.05% Tween-20, 1× PBS) or 3% BSA-PBS-T (3% BSA, 0.05% Tween-20, 1× PBS) prior to incubating with primary antibody (all diluted in 3% BSA-PBS-T). […] Quantification of the relative intensity of the detected bands was done using ImageLab software and normalized to corresponding bands of the loading control (GAPDH or α-Tubulin).

[5] = tested on: p53; assay: Western blot of p53; conditions: 791 30 µM, 833 2 µM, 892 15 µM
Procedure: ELISA for p24 Gag antigen was performed on cell supernatants using kits purchased from Frederick National Laboratory for Cancer Research (Leidos) or XpressBio extended range kit and performed according to manufacturer’s instructions. Protein concentration in cell lysates was quantified by Bradford assay and equal amounts of protein run on 7, 10, 12, or 14% SDS-PAGE, depending on the protein of interest. Following transfer to PVDF (BioRad or Perkin-Elmer), blots were blocked in either 5% Milk-PBS-T (5% Milk, 0.05% Tween-20, 1× PBS) or 3% BSA-PBS-T (3% BSA, 0.05% Tween-20, 1× PBS) prior to incubating with primary antibody (all diluted in 3% BSA-PBS-T). Primary antibodies used were: purified mouse anti-p24 supernatant from anti-HIV-1 Gag hybridoma 183, mouse anti-gp120 hybridoma 902 (NIH AIDS Reagent Program), mouse monoclonal antibody to HIV-1 Rev (Abcam), rabbit polyclonal antibody to HIV-1 Tat (Abcam), mouse monoclonal antibody to p53 (Santa Cruz), rabbit purified IgG for Nap1 (provided by L. Frappier), rabbit polyclonal antibody to GAPDH (Sigma-Aldrich), or mouse monoclonal antibody to α-Tubulin (Sigma-Aldrich). Following incubation with appropriate secondary antibody, blots were visualized by ECL, ECL Plus (Perkin-Elmer), or Clarity Western ECL substrate (BioRad). Quantification of the relative intensity of the detected bands was done using ImageLab software and normalized to corresponding bands of the loading control (GAPDH or α-Tubulin).

SMILES | CC50 [1] | splice site usage within MS RNA relative to control ([2]; 30 µM, 24 h) | GagGFP levels relative to DMSO [3] | cytoplasmic accumulation of HIV-1 US RNA [3] | pIC50 [4] | doses inhibiting HIV-1 virus production that did not affect cell viability ([4]; PBMCs, 2–4 donors) | p53 expression [5] | decrease in levels of Rev1/2 and Nef RNAs relative to DMSO [2] | increase of Tat1 and Tat2 RNAs relative to DMSO [2]
Cc1cc(NCc2cccnc2)n2ncc(-c3ccc(Cl)cc3)c2n1 [Compound 791, 3-(4-chlorophenyl)-5-methyl-N-(3-pyridinylmethyl)pyrazolo[1,5-a]pyrimidin-7-amine] | > 40000 nM | No significant changes | reduced | prevented cytoplasmic accumulation | 5.82 | < 5 µM | approximately twofold | – | –
O=C(NC(=S)NNC(=O)c1ccccc1O)c1ccc(-c2ccccc2)cc1 [Compound 833, N-([2-(2-hydroxybenzoyl)hydrazino]carbonothioyl}-4-biphenylcarboxamide] | > 10000 nM | – | reduced | prevented cytoplasmic accumulation | 5.80 | – | no effect | ~ 30% | < 10%
COc1ccc(C=NNC(=O)c2ccccc2O)cc1O [Compound 892, 2-hydroxy-N′-(3-hydroxy-4-methoxybenzylidene)benzohydrazide] | > 40000 nM | – | reduced | prevented cytoplasmic accumulation | 5.70 | – | no effect | ~ 30% | < 10%
